Experimental data as given in US6818407B2, “Anti-endotoxic antimicrobial cationic peptides and methods of use therfor” (priority 1998, dated 2004).

What was measured:
[1] = system: β-lactamase derepressed mutant (H547) of P. aeruginosa; assay: microbe, parasite or virus in culture; assay type: cell-based; details: P. aeruginosa H547; for (B) MIC of Carb when combined with peptide: Carbenicillin with peptide at concentration (A); for MIC A MIC of Peptides: peptide alone; for (A) Peptide doses together with Carb: peptide concentration in combination with Carbenicillin
How it was run: (§1)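 Checkerboard titration in Mueller Hinton broth, peptide against carbenicillin or ciprofloxacin, inoculum 10 μl of 10^−4 dilution of overnight culture, 18-24 h at 37 °C. Combination MIC is the lowest concentration reducing growth >50%. FIC index = A/MIC A + B/MIC B, with ≤~0.5 synergy, 1.0 additivity, >1.0 antagonism.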

[2] = system: mutant (Nal B, H744) of P. aeruginosa; assay: microbe, parasite or virus in culture; assay type: cell-based; details: for (B) MIC of Cipro when combined with peptide: ciprofloxacin with peptide at concentration (A); for (B) MIC of Cipro when combined with peptide / FIC index / (A) Peptide doses together with Cipro: Nal B, H744; for FIC index: peptide + ciprofloxacin; for MIC A MIC of Peptides: peptide alone, P. aeruginosa mutant Nal B, H744 (Table 5); for (A) Peptide doses together with Cipro: peptide concentration in combination with ciprofloxacin
How it was run: as §1

[3] = Lethal endotoxemia in galactosamine-sensitized mice; assay type: in vivo, CD-1 mice; details: peptide 200 μg intraperitoneal within 10 min of 10 μg LPS; 24 hours post injection; 5 mice per group; no peptide 100
Protocol: To confirm this in vivo, endotoxic shock was induced by intraperitoneal injection of 10 μg of E.coli 0111:B4 LPS in phosphate-buffered saline (PBS; pH 7.2) into galactosamine-sensitized 8- to 10- week old female CD-1 mice (5 per group). In experiments involving peptides, 200 μg in 100 μl of sterile water was injected at separate intraperitoneal sites within 10 min of LPS injection. Survival was monitored at 24 hours post injection.

S. aureus = assay: MIC, broth microdilution assay in polypropylene microtiter trays; assay type: cell-based; details: average of three separate experiments
How it was run: (§2)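 MIC values record the lowest peptide concentration at which turbidity (OD) remained unchanged throughout the assigned period.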

S. aureus K147 = assay: as above; assay type: cell-based; details: average of three separate experiments
How it was run: as §2

E. coli [4] = assay: as above; assay type: cell-based; details: average of three separate experiments
How it was run: as §2

P. aeruginosa = assay: as above; assay type: cell-based; details: average of three separate experiments
How it was run: as §2

S. epidermis = assay: as above; assay type: cell-based; details: average of three separate experiments
How it was run: as §2

E. coli [5] = assay: Synergy study (checkerboard titration) with hen white lysozyme; assay type: cell-based; details: for Lowest [CP] showing synergy: cationic peptide concentration, combined with lysozyme; for Lowest [Lyso] showing synergy: lysozyme concentration, combined with the peptide
P. aeruginosa (H103) = assay: as above; assay type: cell-based; details: for Lowest [CP] showing synergy: cationic peptide concentration, combined with lysozyme; for Lowest [Lyso] showing synergy: lysozyme concentration, combined with the peptide
Salmonella typhi = assay: as above; assay type: cell-based; details: for Lowest [CP] showing synergy: cationic peptide concentration, combined with lysozyme; for Lowest [Lyso] showing synergy: lysozyme concentration, combined with the peptide
[6] = system: Pseudomonas aeruginosa strain M2; assay: Protection of neutropenic CD-1 mice challenged with Pseudomonas aeruginosa; assay type: in vivo; design: Survival post bacterial challenge, surviving mice: reference not given here; details: for Survival (%) post bacterial challenge: PBS 8
How it was run: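 Neutropenia induced by three i.p. cyclophosphamide doses ([…], alternate days); mice then infected i.p. with 200-300 organisms/mouse. Peptides (200 µg/mouse = 8 mg/kg) in buffered citrate given i.p. at 30 min (single) or 30 min and 16 hrs (double) post-challenge; PBS control; mean of 2 experiments.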

[7] = double dose (200 μg per mouse i.p. at 30 min and 16 hrs), 16 hr
[8] = single dose (200 μg per mouse i.p. at 30 min), 16 hr

CC[C@H](C)[C@H](NC(=O)CNC(=O)[C@@H](NC(=O)[C@H](CCCCN)NC(=O)[C@H](CCCCN)NC(=O)[C@H](Cc1ccccc1)NC(=O)[C@H](CC(C)C)NC(=O)[C@H](CCCCN)NC(=O)[C@H](Cc1c[nH]c2ccccc12)NC(=O)[C@@H](N)CCCCN)[C@@H](C)CC)C(=O)NCC(=O)N[C@@H](C)C(=O)N[C@H](C(=O)N[C@@H](CC(C)C)C(=O)N[C@@H](CCCCN)C(=O)N[C@H](C(=O)N[C@@H](CC(C)C)C(=O)N[C@@H](CCCCN)C(=O)N[C@H](C(=O)N[C@@H](CC(C)C)C(=O)N[C@H](C(=O)N[C@H](C(=O)NCC(=O)N[C@@H](CC(C)C)C(=O)N1CCC[C@H]1C(=O)N[C@@H](C)C(=O)N[C@@H](CC(C)C)C(=O)N[C@@H](CCCCN)C(=O)N[C@@H](CC(C)C)C(=O)N[C@H](C(=O)N[C@@H](CC(C)C)C(=O)N[C@@H](CCCCN)C(=O)O)[C@@H](C)O)[C@@H](C)O)[C@@H](C)O)C(C)C)C(C)C)C(C)C [CM4]
(B) MIC of Carb when combined with peptide [1]: 64 µg/mL | MIC A MIC of Peptides [1]: 4 µg/mL | (A) Peptide doses together with Carb [1]: 1 µg/mL | (B) MIC of Cipro when combined with peptide [2]: .125 µg/mL | FIC index [2]: .75 | MIC A MIC of Peptides [2]: 4 µg/mL | (A) Peptide doses together with Cipro [2]: 1 µg/mL | Mortality (%) [3]: 80% | MIC S. aureus (S. aureus): 8 µg/mL | MIC S. aureus K147 (S. aureus K147): 8 µg/mL | MIC E. coli (E. coli [4]): 4 µg/mL | MIC P. aeruginosa (P. aeruginosa): 4 µg/mL | MIC S. epidermis (S. epidermis): 4 µg/mL | FIC for combination of cationic peptide and lysozyme (E. coli [5]): 0.07 | Lowest [CP] showing synergy (E. coli [5]): 1.3 µg/mL | Lowest [Lyso] showing synergy (E. coli [5]): 7.8 µg/mL | FIC for combination of cationic peptide and lysozyme (P. aeruginosa (H103)): 0.75 | Lowest [CP] showing synergy (P. aeruginosa (H103)): 2.6 µg/mL | Lowest [Lyso] showing synergy (P. aeruginosa (H103)): 250 µg/mL | FIC for combination of cationic peptide and lysozyme (Salmonella typhi): 0.50 | Lowest [CP] showing synergy (Salmonella typhi): 2.61 µg/mL | Lowest [Lyso] showing synergy (Salmonella typhi): 7.8 µg/mL | Survival post bacterial challenge, surviving mice [6, 7]: 14 | Survival post bacterial challenge, surviving mice ([6]; double dose, 24 hr): 14 | Survival post bacterial challenge, surviving mice ([6]; double dose, 41 hr): 7 | Survival post bacterial challenge, surviving mice ([6]; double dose, 48 hr): 2 | Survival post bacterial challenge, surviving mice ([6]; double dose, 64 hr): 2 | Survival (%) post bacterial challenge ([6]; double dose, 64 hr): 14% | Survival post bacterial challenge, surviving mice ([6]; double dose, 72 hr): 2 | Survival (%) post bacterial challenge ([6]; double dose, 72 hr): 14% | Survival post bacterial challenge, surviving mice ([6]; double dose, 96 hr): 2 | Survival (%) post bacterial challenge ([6]; double dose, 96 hr): 14% | Survival post bacterial challenge, surviving mice [6, 8]: 15 | Survival post bacterial challenge, surviving mice ([6]; single dose, 24 hr): 15 | Survival post bacterial challenge, surviving mice ([6]; single dose, 41 hr): 9 | Survival post bacterial challenge, surviving mice ([6]; single dose, 48 hr): 3 | Survival post bacterial challenge, surviving mice ([6]; single dose, 64 hr): 1 | Survival (%) post bacterial challenge ([6]; single dose, 64 hr): 6% | Survival post bacterial challenge, surviving mice ([6]; single dose, 72 hr): 1 | Survival (%) post bacterial challenge ([6]; single dose, 72 hr): 6% | Survival post bacterial challenge, surviving mice ([6]; single dose, 96 hr): 1 | Survival (%) post bacterial challenge ([6]; single dose, 96 hr): 16%

CC[C@H](C)[C@H](NC(=O)CNC(=O)[C@@H](NC(=O)[C@H](CCCCN)NC(=O)[C@H](CCCCN)NC(=O)[C@@H](NC(=O)[C@H](Cc1ccccc1)NC(=O)[C@H](CCCCN)NC(=O)[C@H](CCCCN)NC(=O)[C@H](Cc1c[nH]c2ccccc12)NC(=O)[C@@H](N)CCCCN)[C@@H](C)CC)[C@@H](C)CC)C(=O)NCC(=O)N[C@@H](C)C(=O)N[C@H](C(=O)N[C@@H](CC(C)C)C(=O)N[C@@H](CCCCN)C(=O)N[C@H](C(=O)N[C@@H](CC(C)C)C(=O)N[C@H](C(=O)N[C@H](C(=O)NCC(=O)N[C@@H](CC(C)C)C(=O)N1CCC[C@H]1C(=O)N[C@@H](C)C(=O)N[C@@H](CC(C)C)C(=O)N[C@@H](CCCCN)C(=O)N[C@@H](CC(C)C)C(=O)N[C@H](C(=O)N[C@@H](CCCCN)C(=O)N[C@@H](CCCCN)C(=O)O)[C@@H](C)O)[C@@H](C)O)[C@@H](C)O)C(C)C)C(C)C [CPα2]
(B) MIC of Carb when combined with peptide [1]: 32 µg/mL | FIC index ([1]; peptide + Carbenicillin, about 0.5 or less synergy, 1.0 additivity, >1.0 antagonism): 1.0 | MIC A MIC of Peptides [1]: 2 µg/mL | (A) Peptide doses together with Carb [1]: 1 µg/mL | (B) MIC of Cipro when combined with peptide [2]: .125 µg/mL | FIC index [2]: .75 | MIC A MIC of Peptides [2]: 2 µg/mL | (A) Peptide doses together with Cipro [2]: 1 µg/mL | MIC S. aureus (S. aureus): 16 µg/mL | MIC S. aureus K147 (S. aureus K147): 16 µg/mL | MIC E. coli (E. coli [4]): 2 µg/mL | MIC P. aeruginosa (P. aeruginosa): 6 µg/mL | FIC for combination of cationic peptide and lysozyme (E. coli [5]): 0.31 | Lowest [CP] showing synergy (E. coli [5]): 0.65 µg/mL | Lowest [Lyso] showing synergy (E. coli [5]): 7.8 µg/mL | FIC for combination of cationic peptide and lysozyme (P. aeruginosa (H103)): 0.56 | Lowest [CP] showing synergy (P. aeruginosa (H103)): 10.4 µg/mL | Lowest [Lyso] showing synergy (P. aeruginosa (H103)): 62.5 µg/mL | FIC for combination of cationic peptide and lysozyme (Salmonella typhi): 0.63 | Lowest [CP] showing synergy (Salmonella typhi): 2.61 µg/mL | Lowest [Lyso] showing synergy (Salmonella typhi): 125 µg/mL | Survival post bacterial challenge, surviving mice [6, 7]: 13 | Survival post bacterial challenge, surviving mice ([6]; double dose, 24 hr): 13 | Survival post bacterial challenge, surviving mice ([6]; double dose, 41 hr): 12 | Survival post bacterial challenge, surviving mice ([6]; double dose, 48 hr): 9 | Survival post bacterial challenge, surviving mice ([6]; double dose, 64 hr): 6 | Survival (%) post bacterial challenge ([6]; double dose, 64 hr): 46% | Survival post bacterial challenge, surviving mice ([6]; double dose, 72 hr): 6 | Survival (%) post bacterial challenge ([6]; double dose, 72 hr): 46% | Survival post bacterial challenge, surviving mice ([6]; double dose, 96 hr): 5 | Survival (%) post bacterial challenge ([6]; double dose, 96 hr): 38% | Survival post bacterial challenge, surviving mice [6, 8]: 15 | Survival post bacterial challenge, surviving mice ([6]; single dose, 24 hr): 15 | Survival post bacterial challenge, surviving mice ([6]; single dose, 41 hr): 13 | Survival post bacterial challenge, surviving mice ([6]; single dose, 48 hr): 13 | Survival post bacterial challenge, surviving mice ([6]; single dose, 64 hr): 13 | Survival (%) post bacterial challenge ([6]; single dose, 64 hr): 86% | Survival post bacterial challenge, surviving mice ([6]; single dose, 72 hr): 12 | Survival (%) post bacterial challenge ([6]; single dose, 72 hr): 80% | Survival post bacterial challenge, surviving mice ([6]; single dose, 96 hr): 12 | Survival (%) post bacterial challenge ([6]; single dose, 96 hr): 80%
